From patent US9200046B2, “Reporter system for high throughput screening of compounds and uses thereof” (priority 2011, dated 2015)
Counter-ions that a name gives are not always drawn. Like-named read-outs stand apart in the source and are kept apart here.

Target: Nrf2-Keap1 complex (Homo sapiens, UniProt Q14145)
Test: cell-based
Type: cell-based
Details: for activation at 16 µM / activation at 32 µM: 3 h; for activation at 16 µM: read-out: Activation 100 nL; for activation at 32 µM: read-out: Activation 200 nL
[1] = Table 1A, 100 nL compound, screen run at 16 and 32 μM, 3 hr
[2] = Table 1A, 200 nL compound, screen run at 16 and 32 μM, 3 hr
[3] = Table 2, 100 nL compound, screen run at 16 and 32 μM, 3 hr
[4] = Table 2, 200 nL compound, screen run at 16 and 32 μM, 3 hr

Chain of Nrf2-Keap1 complex (Q14145 whole entry, one chain of several): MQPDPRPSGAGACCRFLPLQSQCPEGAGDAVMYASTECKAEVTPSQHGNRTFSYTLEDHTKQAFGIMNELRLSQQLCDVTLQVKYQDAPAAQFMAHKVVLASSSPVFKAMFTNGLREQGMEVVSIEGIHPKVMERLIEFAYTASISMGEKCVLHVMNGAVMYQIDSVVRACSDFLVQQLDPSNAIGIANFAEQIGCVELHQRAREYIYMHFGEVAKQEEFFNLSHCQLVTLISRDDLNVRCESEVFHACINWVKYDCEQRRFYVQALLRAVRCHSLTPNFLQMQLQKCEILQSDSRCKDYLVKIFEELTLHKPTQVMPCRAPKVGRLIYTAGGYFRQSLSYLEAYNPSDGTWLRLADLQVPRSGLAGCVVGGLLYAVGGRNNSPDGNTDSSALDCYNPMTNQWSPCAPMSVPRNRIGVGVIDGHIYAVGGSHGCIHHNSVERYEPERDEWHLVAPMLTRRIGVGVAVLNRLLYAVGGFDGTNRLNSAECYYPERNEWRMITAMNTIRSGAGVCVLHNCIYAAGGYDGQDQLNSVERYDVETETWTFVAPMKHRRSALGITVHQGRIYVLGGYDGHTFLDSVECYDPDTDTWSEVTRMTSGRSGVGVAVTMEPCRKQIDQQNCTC

Molecule	activation at 16 µM	activation at 32 µM	100 nL (luminescence) [3]	200 nL (luminescence) [4]	other results
NC(=O)c1ccc(N)nc1 [6-AMINONICOTINAMIDE]	26%	1%	–	–	100 nL (luminescence) [1]: 756; 200 nL (luminescence) [2]: 344
O=C1CN(/N=C/c2ccc([N+](=O)[O-])o2)C(=O)N1 [NITROFURANTOIN, reference compound]	30%	47%	–	–	–
CC(C)c1ccc2c(c1)CC[C@H]1[C@](C)(C(N)=O)CCC[C@]21C [DEHYDROABIETAMIDE]	66%	135%	–	–	–
C[C@@](Cc1ccc(O)c(O)c1)(NN)C(=O)O [CARBIDOPA, reference compound]	217%	67%	2262	1900	–
CC1(C)C=CC(=O)[C@@]2(C)C1CC(=O)[C@]1(C)C2CC[C@@]2(C)[C@H](c3ccoc3)OC(=O)C3OC321 (some centres unmarked) [DEACETOXY-7-OXISOGEDUNIN]	–	–	2960	3040	Activation 100 nL: 170%; Activation 200 nL: 178%
COc1c(O)cc2c(-c3ccccc3)cc(=O)oc2c1OC [KUHLMANNIN]	26%	33%	596	1104	–
Nc1ncnc2c1ncn2C1O[C@H](COP(=O)(O)O)[C@@H](O)[C@H]1O (some centres unmarked) [ADENOSINEPHOSPHATE, reference compound]	27%	14%	–	–	100 nL (luminescence) [1]: 924; 200 nL (luminescence) [2]: 556
C=C(CC)C(=O)c1ccc(OCC(=O)O)c(Cl)c1Cl [reference compound]	139%	156%	2088	3604	–
CCC(=O)O[C@H]1[C@H](O[C@@H]2[C@@H](C)[C@H](O[C@H]3C[C@@](C)(OC)[C@@H](O)[C@H](C)O3)[C@@H](C)C(=O)O[C@H](CC)[C@@](C)(O)[C@H](O)[C@@H](C)C(=O)[C@H](C)C[C@@]2(C)O)O[C@H](C)C[C@@H]1N(C)C [ERYTHROMYCINESTOLATE, reference compound]	31%	71%	–	–	–
CC(=O)C(=Cc1ccccc1)CC(=O)O	–	–	1048	1348	Activation 100 nL: 78%; Activation 200 nL: 43%
O=C(/C=C/c1ccccc1)c1ccc(O)cc1O [2′,4′-DIHYDROXYCHALCONE]	227%	45%	2352	1388	–
COc1cc([C@@H]2c3cc4c(cc3[C@@H](O)[C@H]3COC(=O)[C@H]23)OCO4)cc(OC)c1O [4′-DEMETHYLEPIPODOPHYLLOTOXIN]	–	–	–	–	100 nL (luminescence) [1]: 3188; 200 nL (luminescence) [2]: 2844
CC1(C)C(=O)CC[C@]2(C)[C@H]3CC[C@]4(C)C(=CC(=O)O[C@H]4c4ccoc4)[C@]3(C)[C@H](O)C[C@@H]12 [DIHYDRO-7-DESACETYLDEOXYGEDUNIN]	–	–	1852	1796	Activation 100 nL: 98%; Activation 200 nL: 96%
COc1ccc2cc1Oc1ccc(cc1)C[C@H]1c3c(cc4c(c3Oc3cc5c(cc3OC)CCN(C)[C@@H]5C2)OCO4)CCN1C [CEPHARANTHINE, reference compound]	98%	9%	–	–	100 nL (luminescence) [1]: 2348; 200 nL (luminescence) [2]: 584
COc1cc(O)c2c(=O)c(O)c(-c3ccc(O)c(O)c3)oc2c1 [RHAMNETIN]	138%	47%	2216	1536	–
C=C[C@@]1(C)CC(=O)[C@]2(O)[C@@]3(C)[C@@H](O)CCC(C)(C)[C@@H]3[C@H](O)[C@H](OC(C)=O)[C@@]2(C)O1 [COLFORSIN, reference compound]	91%	120%	2208	2568	–
C=C1C2=CC(=O)O[C@@H](c3ccoc3)[C@]2(C)CC[C@@H]1[C@@]1(C)C=CC(=O)C(C)(C)[C@@H]1CC(=O)OC [DEOXYANDIROBIN]	95%	106%	1816	1944	–
CCCCCCCCCCCCCC(=O)O[C@@H]1[C@@H](C)[C@@]2(O)[C@@H](C=C(CO)C[C@]3(O)C(=O)C(C)=C[C@@H]23)[C@@H]2C(C)(C)[C@]12OC(C)=O [PHORBOLMYRISTATEACETATE, reference compound]	47%	16%	776	712	–
CC(C)=CCc1c2c(c(O)c3c(=O)c(O)c(-c4ccccc4)oc13)C=CC(C)(C)O2 [SERICETIN]	263%	20%	2672	800	–
COc1cc([C@@H]2c3cc4c(c(O)c3C[C@H]3COC(=O)[C@@H]32)OCO4)cc(OC)c1OC [beta-PELTATIN]	62%	21%	–	–	100 nL (luminescence) [1]: 910; 200 nL (luminescence) [2]: 836

Molecule	activation at 16 µM	activation at 32 µM	100 nL (luminescence) [3]	200 nL (luminescence) [4]	other results
CSc1nc(NC(C)C)nc(NC(C)C)n1 [PROMETRYN]	67%	4%	1264	542	–
COC(=O)Nc1nc2cc(C(=O)c3ccccc3)ccc2[nH]1 [MEBENDAZOLE, reference compound]	74%	216%	–	–	100 nL (luminescence) [1]: 1872; 200 nL (luminescence) [2]: 3056
C[C@@H]1C(=O)O[C@H]2[C@H]1CC[C@@]1(C)C=CC(=O)[C@@]3(C)O[C@@]213 [EPOXY(4,5alpha)-4,5-DIHYDROSANTONIN]	–	–	3828	3164	Activation 100 nL: 227%; Activation 200 nL: 186%
COc1ccc2c(c1)OC/C(=C/c1ccc(OC)c(OC)c1)C2=O [SAPPANONEATRIMETHYLETHER]	246%	93%	3652	2586	–
O=C(O)C(S)C(S)C(=O)O (centres unmarked) [2,3-DIMERCAPTOSUCCINICACID, reference compound]	238%	123%	–	–	100 nL (luminescence): 4452; 200 nL (luminescence): 2760
CC(C)c1cc2c(c(O)c1O)[C@@]1(C(=O)O)CCCC(C)(C)[C@@H]1CC2 [CARNOSICACID]	372%	182%	3620	4604	–
CC(=O)OC[C@@]1(O)C[C@@]23CC[C@@H]4c5ccoc5CC[C@@]4(C)[C@@H]2CC[C@@H]1C3 [CAFESTOLACETATE]	81%	67%	1452	1976	–
O=C(CC(=O)c1ccccc1)c1ccccc1 [DIBENZOYLMETHANE]	66%	-8%	–	–	100 nL (luminescence): 1368; 200 nL (luminescence): 204
COc1cc(O)c(C(=O)/C=C/c2ccc(OC)c(O)c2)c(OC)c1 [2′,3-DIHYDROXY-4,4′,6′-TRIMETHOXYCHALCONE]	296%	10%	5436	544	–
CC(=O)Oc1cc(-c2coc3cc(OC(C)=O)c(OC(C)=O)c(OC(C)=O)c3c2=O)cc(OC(C)=O)c1OC(C)=O [IRIGINOLHEXAACEATATE]	65%	58%	1350	1208	–
CCCCC1C(=O)N(c2ccccc2)N(c2ccc(O)cc2)C1=O (centres unmarked) [OXYPHENBUTAZONE, reference compound]	–	–	1760	3084	Activation 100 nL: 113%; Activation 200 nL: 131%
CC(CCc1ccccc1)NC(C)C(O)c1ccc(O)cc1 (centres unmarked) [NYLIDRINHYDROCHLORIDE, reference compound]	42%	22%	–	–	–
O=c1c(O)c(-c2ccccc2)oc2ccccc12 [3-Hydroxyflavone]	–	–	–	–	hit strength in the screen (words): modest Nrf2 activator
C=C(NC(=O)C(=C)NC(=O)c1csc(C2=N[C@@H]3c4csc(n4)[C@H]4NC(=O)c5csc(n5)[C@H]([C@](C)(O)[C@@H](C)O)NC(=O)[C@H]5CSC(=N5)/C(=C/C)NC(=O)[C@H]([C@@H](C)O)NC(=O)c5csc(n5)[C@]3(CC2)NC(=O)[C@H](C)NC(=O)C(=C)NC(=O)[C@H](C)NC(=O)[C@H]([C@@H](C)CC)N[C@@H]2C=Cc3c([C@H](C)O)cc(nc3[C@H]2O)C(=O)O[C@@H]4C)n1)C(N)=O [THIOSTREPTON, reference compound]	58%	50%	–	–	100 nL (luminescence) [1]: 876; 200 nL (luminescence) [2]: 1504
O=C(NC(=O)c1c(F)cccc1F)Nc1cc(Cl)c(OC(F)(F)C(F)C(F)(F)F)cc1Cl (centres unmarked) [LUFENURON]	32%	29%	–	–	100 nL (luminescence): 644; 200 nL (luminescence): 1022
CC(=O)O[C@@H]1CC2C(C)(C)C=CC(=O)[C@]2(C)C2CC[C@@]3(C)[C@H](c4ccoc4)OC(=O)C4OC43[C@@]21C (some centres unmarked) [ISOGEDUNIN]	–	–	2724	3188	Activation 100 nL: 155%; Activation 200 nL: 188%
O=C1C=C(O)C(=O)c2ccccc21 [LAWSONE]	54%	34%	–	–	100 nL (luminescence): 840; 200 nL (luminescence): 1140
AMSACRINEHYDROCHLORIDE [reference compound]	–	–	–	–	100 nL (luminescence): 3384; 200 nL (luminescence): 1264; Activation 100 nL: 345%; Activation 200 nL: 40%
COc1ccc(/C=C/C(=O)c2cc(O)ccc2O)cc1 [2′,5′-DIHYDROXY-4-METHOXYCHALCONE]	322%	20%	3188	800	–
